In a melting point compilation (Tetko et al.; mined from patent text by program, amines drawn as free bases though some values may be those of a salt):

Row | SMILES | melting point
1 | CCCCCCCCCCCCCCCCCC(=O)NC#N | 74 to 75 °C
2 | O=C1C(=CO)CSc2ccc(Cl)cc21 | 103 to 104 °C
3 | COc1ccc2c(c1)C(O)(CC#N)C(C)(C)CC2 (stereo unspecified) | 107 to 108 °C
4 | CCCNC(=O)NNC=NC(=O)c1nc(Cl)c(N)nc1N | 220 to 221 °C
5 | COc1cc2c(c(OS(=O)(=O)c3ccc(C)cc3)c1OC)C1=C(CCC1)C(=O)CC2 | 138 °C
6 | CC1CC(=O)NN=C1c1ccc(NCCN)c([N+](=O)[O-])c1 (stereo unspecified) | 162 to 164 °C
7 | N#Cc1ccc2c(c1)[C@@H](OC1=CC(=O)CC1)[C@H](O)C(CF)(CF)O2 (relative stereo) | 200 to 201 °C
8 | COc1cccc2c(CCCN(CC3CC3)C3COc4c(F)ccc(C(N)=O)c4C3)coc12 (stereo unspecified) | 125 to 132 °C
9 | O=C(NCCCCCCOC(=O)N1CCCCC1)OC1CCN(C(=O)Oc2ccc(Oc3ccccc3)cc2)CC1 | 92 to 93 °C
10 | CCn1c2c(c3cc(OC)c(OC)cc3c1=O)C(=O)c1cc3c(cc1-2)OCO3 | 291 to 293 °C
11 | COC(=O)c1cncs1 | 68 °C
12 | CC(=O)Nc1ccc(S(=O)CC(=O)C23CC4CC(CC(C4)C2)C3)cc1 (stereo unspecified) | 174 to 176 °C
13 | NC(=O)c1sc2c(Cl)cccc2c1Cl | 225 to 229 °C
14 | CC(=NS(=O)(=O)C=Cc1c(Cl)cccc1Cl)NC1CC1 | 121 to 124 °C
15 | CCOC(=O)Cc1nnc(NS(=O)(=O)c2ccc(NC(C)=O)cc2)s1 | 156 to 157 °C
16 | CCCCCCCCCCCCCCCCCCNCC(O)CO (stereo unspecified) | 81 to 83 °C
17 | CNC(=S)Nc1ccc2c(c1)C(=O)NC(=O)C2(C)C | 206 to 207 °C
18 | CS(=O)(=O)c1ccc(-c2cc(CBr)nn2CC2CCCCC2)cc1 | 141 to 143 °C
19 | Nc1nc(N)nc(NC2CCCCC2)n1 | 151 °C
20 | COC(=O)C(C)(C)OCC#Cc1cc(Cl)ccc1NS(=O)(=O)c1ccc(OC)cc1 | 98 to 100 °C
21 | C=C(c1cn(-c2c(Cl)cc(C(F)(F)F)cc2Cl)nc1C#N)C(F)(F)F | 103 to 104 °C
22 | CCCNc1c(NCCCOc2cccc(CN3CCCCC3)c2)c(=O)c1=O | 158 to 160 °C

Row | SMILES | melting point
23 | Clc1conc1OC1CN2CCC1CC2 (stereo unspecified) | 68 to 69 °C
24 | O=S1(=O)NCNc2ccc(F)cc21 | 159 to 165 °C
25 | CC(=O)SCC(CC(C)C)C(=O)Nc1cccc(C(=O)O)c1C (stereo unspecified) | 154 to 156 °C
26 | O=c1cnc2c(NCCO)nc(SCc3cccc(Cl)c3F)nc2[nH]1 | 195 to 196 °C
27 | CCSc1nnc(CO)n1Cc1ccc(N)cc1 | 145 to 147 °C
28 | COC(=O)C1=C(C(F)F)NC(C)=C(C(=O)OC(C)C)C1c1cccc([N+](=O)[O-])c1 (stereo unspecified) | 140 to 141 °C
29 | CCCCCCCCCCCCCCCCOC(=O)c1ccc(-c2ncc[nH]2)nc1 | 97 to 98 °C
30 | CN(C)C(=O)Nc1ccc(SCc2nc(Cl)ccc2Cl)cc1 | 112 to 114 °C
31 | CC(=O)NC[C@H]1CN(c2ccc(-n3ccnn3)c(F)c2)C(=O)O1 | 193 to 194 °C
32 | CC1(C)CC(N2C(=O)c3ccc(C(=O)O)cc3C2=O)CC(C)(C)N1 | > 225 °C
33 | COC(=O)C1(NC(=O)Cc2cc(-c3ccc(F)cc3)ccc2C)CCC(F)(F)CC1 | 187 °C
34 | CCOC(=O)C(=O)NC(=O)N1CC1C#N (stereo unspecified) | 104 to 106 °C
35 | CCOC(=O)c1ccc(C(F)(F)F)c(O)n1 | 141 to 142 °C
36 | CNC1(C)CN(c2cc3c(cc2F)c(=O)c(C(=O)O)cn3C2CC2)C1 | > 300 °C
37 | COC(=O)CCCCCOc1ccc(NC(=O)OCCO)cc1 | 69.5 to 71.5 °C
38 | COCCOc1ccc2c(Cl)c(C#N)cnc2c1 | 143 to 145 °C
39 | COC(=O)C1(NC(=O)Cc2cc(Br)c(F)cc2C)CCN(OC)CC1 | 192 to 193 °C
40 | Nc1cc([N+](=O)[O-])c(Cl)cc1F | 82 to 83.5 °C
41 | CC(=O)NC(=O)CSCc1ccccc1 | 86 to 87 °C
42 | CCNc1cc(O)c(C)cc1Cl | 205 °C
43 | C=CCc1c(O)ccc(C(=O)OC)c1O | 65 to 66 °C

Other lines, results leading:

Row | melting point | SMILES
44 | 121 to 123 °C | O=C1N(Cc2ccc(Cl)cc2)c2ccccc2C1(O)CC(F)(F)c1cccs1 (stereo unspecified)
45 | 95 to 97 °C | CCON1C(=O)c2ccccc2C1=O
46 | 179 °C | COC(=O)c1ccc2c(c1)c(=O)n(Cc1ccccc1)c(=O)n2C
47 | 63 °C | Cc1ccc(C)n1-c1c(Cl)cc(C(F)(F)F)cc1Cl
48 | 225 to 227 °C | COc1cc(F)ccc1Oc1c(Cl)nc(-c2ncccn2)nc1NS(=O)(=O)c1ccc(C(C)(C)C)cc1
49 | 157 to 158 °C | Clc1ccc(Nc2ncc(CCc3cccnc3)c3ccccc23)cc1
50 | 242 °C | CC(=O)n1cc(/C=C2\N=C(c3ccccc3)OC2=O)c2cc(Cl)cnc21
51 | 100 °C | COCCOC(=O)c1ccccc1Nc1nc(Nc2cc3c(cc2OC)CCN(CC(C)O)CC3)ncc1Cl (stereo unspecified)
52 | 114 °C | Cc1cc(C)c(C(=O)Nc2ccccc2S(C)=O)c(I)c1 (stereo unspecified)
53 | > 300 °C | CC(C)c1c(-c2ccncc2)[nH]c2ccc(C3=NNC(=O)CC3)cc12
54 | 179 to 180 °C | CCCc1c(OCCCOc2ccc(C(=O)CCC(=O)O)cc2C)ccc(C(C)=O)c1O
55 | 136 to 137 °C | Cc1cc2nc(/C=C/c3ccccc3)n(-c3ccccn3)c2cc1C
56 | 103 to 105 °C | CC1N=C(N2CCN(CCO)CC2)NN=C1c1ccccc1 (stereo unspecified)
57 | > 300 °C | COc1ccc(-n2cnc3c(O)nc4ccccc4c32)cc1
58 | 163 to 165 °C | CCOc1ccc(S(=O)(=O)N2CCNCC2)cc1-c1nc2c(C)cccc2c(=O)[nH]1
59 | 204 °C | CCC(C)CNC(=O)c1ccc2cccc(Cc3ccc(C(=O)NS(=O)(=O)c4ccccc4C)cc3OC)c2c1 (stereo unspecified)
60 | 98.5 to 101 °C | CCCc1cn(C(C)(C)C(=O)N(C)C)nc1-c1ccccc1
61 | 87 °C | Cc1ccncc1-n1nc(C)c(CC(=O)OCC2CC2)c1-c1ccccc1
62 | 151 to 154 °C | COc1ccc(CNn2c(=O)ccc3ccc(Cl)nc32)cc1Cl
63 | 119 to 121 °C | Cc1nc(C)n(-c2cc([C@@H]3C[C@H]3c3nc4ccccc4n3C)nc(C(N)=O)n2)n1 (relative stereo)

Row | melting point | SMILES
64 | 86 °C | O=C(c1ccc(OCCCCl)cc1)c1cccc2[nH]ccc12
65 | 94 to 95 °C | O=C(CCl)N1CC(c2ccc(Cl)cc2)Sc2ccccc21 (stereo unspecified)
66 | 227 to 228 °C | Cc1c(C(=O)c2ccc(F)cc2)n(N2C(=O)c3ccccc3C2=O)c2ccccc12
67 | 79 to 80 °C | CNc1cc(N(C)S(=O)(=O)c2ccc(N)cc2)nc(NC)n1
68 | 237 to 238 °C | O=C1NC(=O)C(=Cc2ccc(SCc3ccccc3)cc2)S1
69 | > 300 °C | Cn1cc2c(C3C(=O)Nc4ccc(Br)cc43)nc(Cl)nc2n1 (stereo unspecified)
70 | 85 to 92 °C | Clc1cccc2c1C1(CO1)c1ccccc1C21CO1 (stereo unspecified)
71 | 116 to 117 °C | CCNC(=O)C(C)NC(=O)OCc1ccccc1 (stereo unspecified)
72 | 80 to 82 °C | CCCCc1c(C(=O)OCC)cc(O)c2c(OC)cccc12
73 | 129 to 132 °C | COc1cc(N)c(Cl)cc1C(=O)NCC1CCN(CCCCCOc2ccccc2)CC1
74 | 56 °C | Cc1cc(C#Cc2ccccc2)nc(Oc2cc(C(F)(F)F)nn2C)c1
75 | 279 to 281 °C | Cn1c(=O)c2cnc(-c3ccccc3)nc2n(C)c1=O
76 | 86 to 87 °C | CCOC(=O)c1c(CN(CC)CC)nc2sc3c(c2c1-c1ccc(OC)c(OC)c1)CCN(C(=O)c1ccccc1)C3
77 | 165 °C | CCON=C(C(=O)OCC)c1csc(NC(c2ccccc2)(c2ccccc2)c2ccccc2)n1
78 | 248 to 249 °C | Cc1c(C(=O)O)oc(=O)c2ccccc12
79 | 212 to 214 °C | c1ccc(-c2cccn3cnnc23)nc1
80 | 211 to 214 °C | COc1cccc(-c2ncc3n2C=CN(C)C3)c1
81 | 79.5 to 80 °C | CC(=O)Oc1cc(CCc2ccccc2)cc(OC(C)=O)c1OC(C)=O
82 | 94 °C | CCCCc1ccc(-c2ccc(OCC(C)CC)nn2)cc1 (stereo unspecified)
83 | 320 to 324 °C | CN(C)c1noc(-c2ccc3c(c2)c2cc(-c4ccc(Cl)cc4Cl)c(=O)n(C)c2n3C)n1

Row | melting point | SMILES
84 | 155 °C | CC(C)(Oc1cccc2ccccc12)C(=O)Nc1ccc(C(=O)O)cc1
85 | 240 to 242 °C | CC(=O)NCc1coc2cc(NS(C)(=O)=O)c(Oc3ccccc3)cc2c1=O
86 | 169 to 170 °C | Cc1ccccc1NC(=O)CN1CC2CCC(C1)N2S(=O)(=O)c1ccccc1
87 | > 250 °C | COC(=O)c1cc2c(cc1C#Cc1ccccc1)NC(=O)CC(c1cccc(C#N)c1)=N2
88 | 197 °C | OC1CSC(Oc2ccnc(-c3cccnc3)c2)C(O)C1O (stereo unspecified)
89 | 233 °C | CCOC(=O)C1=C(C)N(Cc2ccccc2[N+](=O)[O-])C2=C(C(=O)OC2)C1c1ccccc1C(F)(F)F (stereo unspecified)
90 | 122 °C | O=S1CCC(c2ccccc2)(c2ccccc2)CC1
91 | 123 °C | CCCCc1ncc(CCNC(CCc2ccccc2)C(=O)O)n1Cc1ccccc1Cl (stereo unspecified)
92 | 48 to 50 °C | CCCCCCN1CCC[C@H](NCc2ccccc2OC)[C@@H]1c1ccccc1 (relative stereo)
93 | 118 to 121 °C | Cn1nc2c(-c3ccc(Cl)cc3Cl)cccc2c1-n1cnnc1
94 | 220 to 221 °C | Cc1ncccc1CN(CCn1cc(C)c2occc2c1=O)Cc1ccc2c(c1)NC(=O)C(C)(C)C(=O)N2CC1CC1
95 | 124 to 129 °C | CCc1nc2c(C)cc(C)nc2n1Cc1ccc(C(=Cc2nnn[nH]2)c2ccc(C(F)(F)F)cc2)cc1
96 | 148 to 150 °C | CCOc1cc2cc(CO)c(CO)c(-c3ccnc(Cl)c3)c2cc1OCC
97 | 154 °C | Cc1cccc(C2c3ccccc3S(=O)(=O)N2C)c1 (single isomer, unassigned; (+))
98 | 180 to 182 °C | CCOC(=O)c1ccc(-c2cnc3c(c2)N(Cc2c(F)ccc(F)c2Cl)C(=O)CN3)cc1
99 | 86 to 93 °C | CN(C)CCCCCCNC(=O)c1ccc(-c2nnc(CSCCOc3ccccc3)o2)cc1
100 | 97 to 98 °C | CC(O)c1ccc2cc(OCc3ccccc3)ccc2c1 (stereo unspecified)
101 | 131 to 132 °C | CCOc1nn(-c2ccc(C(F)(F)F)cn2)cc1CCCOc1ccc(CCC(=O)O)cc1OC
